Results published in patent publication US8338337B2, “Substituted pyridines having a herbicidal effect” (BASF SE, priority 2008, dated 2012).

Legend:
ABUTH = experiment: greenhouse post-emergence herbicidal test; assay type: in vivo, Abutilon theophrasti; conditions: 3.0 kg/ha, scale 0 to 100
From the text: The seeds of the test plants were sown separately for each species. For the post-emergence treatment, the test plants were first grown to a height of 3 to 15 cm, depending on the plant habit, and then treated with the active compounds which had been suspended or emulsified in water. For this purpose, the test plants were either sown directly and grown in the same containers, or they were first grown separately as seedlings and transplanted into the test containers a few days prior to treatment. Depending on the species, the plants were kept at 10-25° C. or 20-35° C. The test period extended over 2 to 4 weeks. During this time, the plants were tended, and their response to the individual treatments was evaluated. Evaluation was carried out using a scale from 0 to 100. 100 means no emergence of the plants, or complete destruction of at least the aerial moieties, and 0 means no damage, or normal course of growth. A good herbicidal activity is given at values of at least 70 and a very good herbicidal activity is given at values of at least 85. [table]

AMARE = experiment: greenhouse pre-emergence herbicidal test; assay type: in vivo, Amaranthus retroflexus; conditions: 0.5 kg/ha, scale 0 to 100
From the text: The seeds of the test plants were sown separately for each species. For the pre-emergence treatment, the active compounds, which had been suspended or emulsified in water, were applied directly after sowing by means of finely distributing nozzles. The containers were irrigated gently to promote germination and growth and subsequently covered with transparent plastic hoods until the plants had rooted. This cover caused uniform germination of the test plants, unless this has been impaired by the active compounds. Depending on the species, the plants were kept at 10-25° C. or 20-35° C. The test period extended over 2 to 4 weeks. During this time, the plants were tended, and their response to the individual treatments was evaluated. Evaluation was carried out using a scale from 0 to 100. 100 means no emergence of the plants, or complete destruction of at least the aerial moieties, and 0 means no damage, or normal course of growth. A good herbicidal activity is given at values of at least 70 and a very good herbicidal activity is given at values of at least 85. [table]

Row | Structure (SMILES) | herbicidal activity against ABUTH (ABUTH) | herbicidal activity against AMARE (AMARE)
1 | O=c1oc2ccc(O)nc2c(O)c1-c1ccccc1C(F)(F)F [I-23] | good (A good herbicidal activity is given at values of at least 70) | 
2 | O=c1oc2cccnc2c(O)c1-c1cc(C(F)(F)F)ccc1C(F)(F)F [I-35] |  | very good (a very good herbicidal activity is given at values of at least 85)
